Laboratory results published in US20250235429A1, “TREATMENT OF DISEASES VIA ADMINISTRATION OF BUNTANETAP AND AN ANTIDIABETIC AGENT” (ANNOVIS BIO, INC., priority 2024, published 2025).

Key:
[1] = in vivo; cited from earlier work
[2] = tested on: hippocampal slices APP/PS1 transgenic mice; assay: Electrophysiological study: long-term potentiation (LTP) in hippocampal slices; format: in vivo
Protocol: (§1) Animals: Heterozygous double transgenic mice expressing both human APP (K670N:M671L) and human PS1 (M146L) (line 6.2) and their wild-type non-transgenic littermates, both males and females, were used for these experiments. They were obtained by a breeding colony maintained at the animal facility of Columbia University. They were genotyped through PCR on tail samples. Animals were injected i.p. from the age of […] for 1 month prior to starting behavioral assessment which lasted for 2 weeks during which treatment continued. Behavioral assessment examined spatial and associative memory. Finally, mice were sacrificed for electrophysiological assessment of synaptic function.
(§2) Mice were coded to blind investigators with respect to genotype and treatment. Results were expressed with Standard Error of the Mean (SEM). Level of significance was set for p<0.05. Results were analyzed by ANOVA analysis with post-hoc correction with the combination or genotype as main effect. Experiments were designed in a balanced fashion, and mice were trained and tested at each of the different conditions in 3 or 4 separate experiments.
Mice were i.p. injected with the drug from the age of 8 weeks prior to plaque appearance until euthanasia for collecting slices at the age of 14-16 weeks. The treatment with Buntanetap was daily, whereas the treatment with dulaglutide was twice a week.
Electrophysiological analysis was performed on 400 μm hippocampal slices, cut with a tissue chopper and maintained in an interface chamber at 29° C. for 90 min prior to recording. Briefly, CA1 fEPSPs were recorded by placing both the stimulating and the recording electrodes in CA1 stratum radiatum. Basal synaptic transmission was assayed, either by plotting the stimulus voltages against slopes of fEPSP, or by plotting the peak amplitude of the fiber volley against the slope of the fEPSP. For LTP experiments, a 15 min baseline was recorded every min at an intensity that evokes a response ˜35% of the maximum evoked response. LTP was induced using θ-burst stimulation (4 pulses at 100 Hz, with the bursts repeated at 5 Hz and each tetanus including 3 ten-burst trains separated by 15 see). Data was subjected to statistical analyses to determine the effects of combination on inhibiting synaptic dysfunction.

APP/PS1 transgenic mice [3] = assay: 2-day radial arm water maze (RAWM), spatial memory; format: in vivo
Protocol: as §1, §2
Mice were i.p. injected with the drug from the age of 8 weeks prior to plaque appearance until behavioral assessment that started at 12 weeks of age and lasted for 2 weeks.
Spatial memory was studied with the 2-day radial arm water maze (RAWM) test. The task is a hybrid of the Morris Water Maze (MWM) and the radial arm land maze. The motivation for the animals is immersion in water. The mouse needs to swim in 6 alleys (arms) radiating from a central area until it finds a hidden (submerged) platform at the end of one of the arms, based on visual cues placed in the room. In the old RAWM version of the task, the goal arm varies from day to day, requiring 21 days of training in wild-type mice to reach the learning criterion. In the new version of the task, the goal arm is kept constant for all trials, with a different start arm on successive trials, such that the learning criterion will be reached in 2 days. The first day of the protocol was a training day. Mice were trained to identify the platform location by alternating between a visible and a hidden platform in a goal arm. The final 3 trials on day 1 and all 15 trials on day 2 used a hidden escape platform to force mice to use spatial cues to identify the location of the goal arm. To avoid learning limitations imposed by exhausting practice and to avoid fatigue that may result from consecutive trials, spaced practice training was established by running the mice in cohorts of 4 and alternating different cohorts through the 15 training trials over 3 hours testing periods each day. On day 1, a visible platform was laced in a goal location. Mouse 1 of cohort 1 was gently placed in the pool near the perimeter of the wall of the first start arm (specified on a score sheet) and facing the center of the pool. The number of incorrect arm entries (entries in arms with no platform) was counted. If the animal enters the incorrect arm it was gently pulled back to the start arm. Each trial lasted up to 1 min. Failure to select an arm after 15 sec was counted as an error and the mouse was returned to the start arm. After 1 min, if the platform had not been located, the mouse was guided gently through the water by placing a hand behind it to direct it towards the platform. The mouse rested on the platform for 15 sec. After completing the trial, the mouse was removed from the pool, gently towel dried and placed back into its cage under a heat lamp. The goal platform location was different for each mouse. […] After each mouse from cohort 1 completed six alternating trials between visible and hidden platforms, the mice were left to rest under a heating source, and mice from the second cohort were tested in the same way.

APP/PS1 transgenic mice [4] = assay: Contextual fear conditioning (FC), associative memory; format: in vivo; conditions: Buntanetap 1 mg/Kg and/or dulaglutide 0.1 mg/Kg
Protocol: as §1
Mice were coded to blind investigators with respect to genotype and treatment. Results were expressed with Standard Error of the Mean (SEM). […] Results were analyzed by ANOVA analysis with post-hoc correction with the combination or genotype as main effect. […]
The combination effect on associative memory was assessed through fear conditioning (FC). […] Freezing behavior, defined as the absence of movements except for that needed for breathing, was scored using Noldus software. Contextual fear learning, a type of memory for which hippocampal function is indispensable, was evaluated 24 hrs after training by measuring freezing responses for 5 min in the same chamber where the mice have been trained. […]

[5] = APP/PS1 mice, Buntanetap 1 mg/Kg and/or dulaglutide 0.1 mg/Kg

Substance	onset [1]	peak concentration occurs after administration [1]	% Improvement (Residual Potential) ([2]; APP/PS1, dulaglutide 0.1 mg/kg)	Residual Potential (mean) ([2]; APP/PS1, dulaglutide 0.1 mg/kg i.p. twice a week)	% Improvement (Residual Potential) ([2]; APP/PS1, dulaglutide 0.3 mg/kg)	Residual Potential (mean) ([2]; APP/PS1, dulaglutide 0.3 mg/kg i.p. twice a week)	% Improvement (Residual Potential) ([2]; APP/PS1, dulaglutide 0.6 mg/kg)	Residual Potential (mean) ([2]; APP/PS1, dulaglutide 0.6 mg/kg i.p. twice a week)	impairment of synaptic plasticity measured through Long-term potentiation (LTP) [2, 5]	% Improvement (RAWM errors) (APP/PS1 transgenic mice [3]; APP/PS1, dulaglutide 0.1 mg/kg)	Meran Number of Errors (RAWM) (APP/PS1 transgenic mice [3]; APP/PS1, dulaglutide 0.1 mg/kg)	% Improvement (RAWM errors) (APP/PS1 transgenic mice [3]; APP/PS1, dulaglutide 0.3 mg/kg)	Meran Number of Errors (RAWM) (APP/PS1 transgenic mice [3]; APP/PS1, dulaglutide 0.3 mg/kg)	% Improvement (RAWM errors) (APP/PS1 transgenic mice [3]; APP/PS1, dulaglutide 0.6 mg/kg)	Meran Number of Errors (RAWM) (APP/PS1 transgenic mice [3]; APP/PS1, dulaglutide 0.6 mg/kg)	impairment of short-term spatial memory measured through the 2-day radial arm water maze (RAWM) (APP/PS1 transgenic mice [3]; [5])	impairment of associative memory measured through contextual fear conditioning (FC) (APP/PS1 transgenic mice [4])
Insulin detemir	about 1 hours	3 to 14 h	–	–	–	–	–	–	–	–	–	–	–	–	–	–	–
Insulin glulisine: insulin commercially available as Apidra®	5 to 15 min	–	–	–	–	–	–	–	–	–	–	–	–	–	–	–	–
dulaglutide: GLP-1 agonist, commercially available as Trulicity®	–	–	21.4%	155.52	32.3%	164.68	71.1%	197.26	did not ameliorate	23.5%	2.9	47.1%	2.5	88.2%	1.8	did not ameliorate	did not ameliorate
